# Measured values: patent publication US12180187B2, “1-phenyl-5-azinylpyrazolyl-3-oxyalkyl acids and their use for controlling unwanted plant growth” (BAYER AKTIENGESELLSCHAFT, priority 2019, dated 2024)
# What was measured:
# [1] = system: STEME; assay: Pre-emergence action against STEME, 1280 g/ha; assay type: in vivo, Stellaria media; details: scored visually after about 3 weeks vs untreated controls (100% = plants have died)
# Summary of the method: (§1)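 Pre-emergence pot test: seeds in sandy loam, soil-covered, sprayed on soil surface (WP/EC, 0.5% additive, 600 L/ha water); greenhouse ~3 wk; visual % effect vs untreated, 0–100%.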
# [2] = system: AMARE; assay: Post-emergence action against AMARE, 1.28 kg/ha; assay type: in vivo, Amaranthus retroflexus; details: dosage 1280 g/ha, visual rating about 3 weeks after treatment vs untreated controls (100% = plants died)
# Summary of the method: (§2)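 Greenhouse-grown weeds (sandy loam, twin-sown pots) were treated 2–3 weeks post-sowing at one leaf. The spray was an aqueous WP/EC preparation plus 0.5% additive, applied at 600 L/ha. Scoring was visual at ~3 weeks, 0–100% versus untreated controls.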
# [3] = system: VERPE; assay: Post-emergence action against VERPE, 1.28 kg/ha; assay type: in vivo, Veronica persica; details: dosage 1280 g/ha, visual rating about 3 weeks after treatment vs untreated controls (100% = plants died)
# Summary of the method: as §2
# [4] = system: ECHCG; assay: Pre-emergence action against ECHCG, 1280 g/ha; assay type: in vivo, Echinochloa crus-galli; details: visual scoring after about 3 weeks vs untreated controls, 100% = plants have died, 0% = like control plants
# Summary of the method: as §1
# [5] = system: ECHCG; assay: Post-emergence action against ECHCG, 1.28 kg/ha; assay type: in vivo, Echinochloa crus-galli; details: dosage 1280 g/ha, visual rating about 3 weeks after treatment vs untreated controls
# Summary of the method: as §2
# [6] = system: LOLRI; assay: Post-emergence action against LOLRI, 1.28 kg/ha; assay type: in vivo, Lolium rigidum; details: dosage 1280 g/ha, visual rating about 3 weeks after treatment vs untreated controls
# Summary of the method: as §2
# [7] = system: DIGSA; assay: Post-emergence action against DIGSA, 1.28 kg/ha; assay type: in vivo, Digitaria sanguinalis; details: dosage 1280 g/ha, visual rating about 3 weeks after treatment vs untreated controls
# Summary of the method: as §2
# [8] = system: MATIN; assay: Post-emergence action against MATIN, 1.28 kg/ha; assay type: in vivo, Tripleurospermum inodorum (Matricaria inodora); details: dosage 1280 g/ha, visual rating about 3 weeks after treatment vs untreated controls (100% = plants died)
# Summary of the method: as §2
# [9] = system: POAAN; assay: Post-emergence action against POAAN, 1.28 kg/ha; assay type: in vivo, Poa annua; details: dosage 1280 g/ha, visual rating about 3 weeks after treatment vs untreated controls
# Summary of the method: as §2
# [10] = system: MATIN; assay: Pre-emergence action against MATIN, 1280 g/ha; assay type: in vivo, Tripleurospermum inodorum (Matricaria inodora); details: scored visually after about 3 weeks vs untreated controls (100% = plants have died)
# Summary of the method: as §1
# [11] = system: ALOMY; assay: Post-emergence action against ALOMY, 1.28 kg/ha; assay type: in vivo, Alopecurus myosuroides; details: dosage 1280 g/ha, visual rating about 3 weeks after treatment vs untreated controls
# Summary of the method: as §2
# [12] = system: VERPE; assay: Pre-emergence action against VERPE, 1280 g/ha; assay type: in vivo, Veronica persica; details: scored visually after about 3 weeks vs untreated controls (100% = plants have died)
# Summary of the method: as §1
# [13] = system: POAAN; assay: Pre-emergence action against POAAN, 1280 g/ha; assay type: in vivo, Poa annua; details: visual scoring after about 3 weeks vs untreated controls, 100% = plants have died, 0% = like control plants
# Summary of the method: as §1
# [14] = system: SETVI; assay: Post-emergence action against SETVI, 1.28 kg/ha; assay type: in vivo, Setaria viridis; details: dosage 1280 g/ha, visual rating about 3 weeks after treatment vs untreated controls
# Summary of the method: as §2
# [15] = system: ALOMY; assay: Pre-emergence action against ALOMY, 1280 g/ha; assay type: in vivo, Alopecurus myosuroides; details: visual scoring after about 3 weeks vs untreated controls, 100% = plants have died, 0% = like control plants
# Summary of the method: as §1
# [16] = system: SETVI; assay: Pre-emergence action against SETVI, 1280 g/ha; assay type: in vivo, Setaria viridis; details: visual scoring after about 3 weeks vs untreated controls, 100% = plants have died, 0% = like control plants
# Summary of the method: as §1
# [17] = system: KCHSC; assay: Post-emergence action against KCHSC, 1.28 kg/ha; assay type: in vivo, Bassia scoparia; details: dosage 1280 g/ha, visual rating about 3 weeks after treatment vs untreated controls (100% = plants died)
# Procedure: • a) Seeds of mono- and dicotyledonous weed plants are placed in plastic pots in sandy loam soil (twin sowing with one species each of mono- or dicotyledonous weed plants per pot), covered with soil and cultivated in a greenhouse under controlled growth conditions. 2 to 3 weeks after sowing, the test plants are treated at the one-leaf stage. The compounds of the invention, formulated in the form of wettable powders (WP) or as emulsion concentrates (EC), are applied to the green parts of the plants as aqueous suspension or emulsion with addition of 0.5% additive at a water application rate equivalent to 600 litres per hectare. After the test plants have been kept in the greenhouse under optimum growth conditions for about 3 weeks, the activity of the preparations is rated visually in comparison to untreated controls. For example, 100% activity=the plants have died, 0% activity=like control plants. As shown by the results, compounds of the general formula (I) of the invention, in post-emergence treatment, have very good herbicidal efficacy (90% to 100% herbicidal action) against harmful plants such as Abutilon theophrasti, Digitaria sanguinalis, Echinochloa crus-galli, Matricaria inodora, Poa annua, at an application rate of 1.28 kg of active substance per hectare.
# [18] = system: LOLRI; assay: Pre-emergence action against LOLRI, 1280 g/ha; assay type: in vivo, Lolium rigidum; details: visual scoring after about 3 weeks vs untreated controls, 100% = plants have died, 0% = like control plants
# Summary of the method: as §1
# [19] = system: DIGSA; assay: Pre-emergence action against DIGSA, 1280 g/ha; assay type: in vivo, Digitaria sanguinalis; details: visual scoring after about 3 weeks vs untreated controls, 100% = plants have died, 0% = like control plants
# Summary of the method: as §1
# [20] = system: AMARE; assay: Pre-emergence action against AMARE, 1280 g/ha; assay type: in vivo, Amaranthus retroflexus; details: scored visually after about 3 weeks vs untreated controls (100% = plants have died)
# Summary of the method: as §1
# [21] = system: ABUTH; assay: Post-emergence action against ABUTH, 1.28 kg/ha; assay type: in vivo, Abutilon theophrasti; details: dosage 1280 g/ha, visual rating about 3 weeks after treatment vs untreated controls (100% = plants died)
# Summary of the method: as §2
# [22] = system: VERPE; assay: Pre-emergence action at 320 g/ha against VERPE; assay type: in vivo, Veronica persica; details: visual scoring after about 3 weeks vs untreated controls
# Summary of the method: (§3)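 Weed seeds sown in pots and covered with soil; compounds formulated as WP or EC were sprayed onto the soil surface as aqueous suspension or emulsion with 0.5% additive at 600 l/ha water. Pots kept in greenhouse; activity scored visually after about 3 weeks versus untreated controls (100% = plants dead, 0% = like control).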
# [23] = system: POLCO; assay: Pre-emergence action at 320 g/ha against POLCO; assay type: in vivo, Fallopia convolvulus (Polygonum convolvulus); details: visual scoring after about 3 weeks vs untreated controls
# Summary of the method: as §3
# [24] = system: ALOMY; assay: Post-emergence action against ALOMY, 320 g/ha; assay type: in vivo, Alopecurus myosuroides; details: dosage 320 g/ha, visual rating about 3 weeks after treatment vs untreated controls (100% = plants died)
# Source text: Accordingly, the compounds of the invention have good herbicidal action against a broad spectrum of weed grasses and broad-leaved weeds and are therefore suitable for controlling unwanted vegetation by the post-emergence method. • b) Seeds of monocotyledonous and dicotyledonous weeds and crop plants are placed in sandy loam in plastic or organic planting pots, covered with soil and cultivated in a greenhouse under controlled growth conditions. 2 to 3 weeks after sowing, the test plants are treated at the one-leaf stage. The compounds of the invention, formulated in the form of wettable powders (WP) or as emulsion concentrates (EC), are then sprayed onto the green parts of the plants as aqueous suspension or emulsion with addition of 0.5% additive at a water application rate of 600 l/ha (converted). After the test plants have been kept in the greenhouse under optimum growth conditions for about 3 weeks, the activity of the preparations is rated visually in comparison to untreated controls. For example, 100% activity=the plants have died, 0% activity=like control plants. Tables 39 to 49 below show the effects of selected compounds of the general formula (I) according to Tables 1 and 2 on various harmful plants and at an application rate corresponding to 320 g/ha, which were obtained by the experimental procedure mentioned above.
# [25] = system: MATIN; assay: Pre-emergence action at 320 g/ha against MATIN; assay type: in vivo, Tripleurospermum inodorum (Matricaria inodora); details: visual scoring after about 3 weeks vs untreated controls
# Summary of the method: as §3
# [26] = system: SETVI; assay: Pre-emergence action at 320 g/ha against SETVI; assay type: in vivo, Setaria viridis; details: visual scoring after about 3 weeks vs untreated controls
# Summary of the method: as §3
# [27] = system: AMARE; assay: Pre-emergence action at 320 g/ha against AMARE; assay type: in vivo, Amaranthus retroflexus; details: visual scoring after about 3 weeks vs untreated controls
# Summary of the method: as §3
# [28] = system: DIGSA; assay: Pre-emergence action at 320 g/ha against DIGSA; assay type: in vivo, Digitaria sanguinalis; details: visual scoring after about 3 weeks vs untreated controls
# Summary of the method: as §3
# [29] = system: VIOTR; assay: Pre-emergence action at 320 g/ha against VIOTR; assay type: in vivo, Viola tricolor; details: dosage 320 g/ha
# Summary of the method: as §3
# [30] = system: ALOMY; assay: Pre-emergence action at 320 g/ha against ALOMY; assay type: in vivo, Alopecurus myosuroides; details: scored visually after about 3 weeks vs untreated controls (100% = plants have died)
# Summary of the method: as §3
# [31] = system: STEME; assay: Post-emergence action against STEME, 1.28 kg/ha; assay type: in vivo, Stellaria media; details: dosage 1280 g/ha, visual rating about 3 weeks after treatment vs untreated controls (100% = plants died)
# Summary of the method: as §2
smiles,measurement,setting,value
CONC(=O)COc1nn(-c2ccccc2F)c(-c2ccc(F)nc2)c1Br [VII-068],Pre-emergence action against STEME,[1],100%
same,Post-emergence action against AMARE,[2],100%
same,Post-emergence action against VERPE,[3],100%
same,Pre-emergence action against ECHCG,[4],100%
same,Post-emergence action against ECHCG,[5],100%
same,Post-emergence action against LOLRI,[6],100%
same,Post-emergence action against DIGSA,[7],100%
same,Post-emergence action against MATIN,[8],90%
same,Post-emergence action against POAAN,[9],100%
same,Pre-emergence action against MATIN,[10],100%
same,Post-emergence action against ALOMY,[11],100%
same,Pre-emergence action against VERPE,[12],100%
same,Pre-emergence action against POAAN,[13],100%
same,Post-emergence action against SETVI,[14],90%
same,Pre-emergence action against ALOMY,[15],100%
same,Pre-emergence action against SETVI,[16],100%
same,Post-emergence action against KCHSC,[17],90%
same,Pre-emergence action against LOLRI,[18],100%
same,Pre-emergence action against DIGSA,[19],100%
same,Pre-emergence action against AMARE,[20],100%
same,Post-emergence action against ABUTH,[21],100%
CCOC(=O)COc1nn(-c2ccccc2C)c(-c2ccc(F)nc2)c1C(F)(F)F [VII-105],Pre-emergence action against STEME,[1],100%
same,Pre-emergence action against VERPE in %,[22],90%
same,Post-emergence action against VERPE,[3],90%
same,Pre-emergence action against ECHCG,[4],100%
same,Pre-emergence action against POLCO in %,[23],90%
same,Post-emergence action against ECHCG,[5],100%
same,Post-emergence action against DIGSA,[7],100%
same,Post-emergence action against MATIN,[8],100%
same,Post-emergence action against ALOMY,[24],90%
same,Post-emergence action against POAAN,[9],100%
same,Pre-emergence action against MATIN,[10],90%
same,Post-emergence action against ALOMY,[11],100%
same,Pre-emergence action against VERPE,[12],100%
same,Pre-emergence action against MATIN in %,[25],100%
same,Pre-emergence action against SETVI in %,[26],80%
same,Pre-emergence action against POAAN,[13],100%
same,Pre-emergence action against ALOMY,[15],100%
same,Pre-emergence action against SETVI,[16],100%
same,Pre-emergence action against AMARE in %,[27],90%
same,Pre-emergence action against DIGSA in %,[28],100%
same,Pre-emergence action against VIOTR in %,[29],90%
same,Pre-emergence action at 320 g/ha against ALOMY in %,[30],90%
same,Pre-emergence action against LOLRI,[18],100%
same,Pre-emergence action against DIGSA,[19],100%
same,Pre-emergence action against AMARE,[20],100%
same,Post-emergence action against STEME,[31],100%
